Data on one compound can be found in ChEMBL document CHEMBL4706528, “The design, synthesis and anti-tumor mechanism study of new androgen receptor degrader” (Eur J Med Chem, 2020).

The source made the active and inactive calls. No cut-off for these calls is given here.

For data set [1], the target named is T1, Androgen receptor (Homo sapiens) (UniProt P10275).
T1 sequence (whole entry): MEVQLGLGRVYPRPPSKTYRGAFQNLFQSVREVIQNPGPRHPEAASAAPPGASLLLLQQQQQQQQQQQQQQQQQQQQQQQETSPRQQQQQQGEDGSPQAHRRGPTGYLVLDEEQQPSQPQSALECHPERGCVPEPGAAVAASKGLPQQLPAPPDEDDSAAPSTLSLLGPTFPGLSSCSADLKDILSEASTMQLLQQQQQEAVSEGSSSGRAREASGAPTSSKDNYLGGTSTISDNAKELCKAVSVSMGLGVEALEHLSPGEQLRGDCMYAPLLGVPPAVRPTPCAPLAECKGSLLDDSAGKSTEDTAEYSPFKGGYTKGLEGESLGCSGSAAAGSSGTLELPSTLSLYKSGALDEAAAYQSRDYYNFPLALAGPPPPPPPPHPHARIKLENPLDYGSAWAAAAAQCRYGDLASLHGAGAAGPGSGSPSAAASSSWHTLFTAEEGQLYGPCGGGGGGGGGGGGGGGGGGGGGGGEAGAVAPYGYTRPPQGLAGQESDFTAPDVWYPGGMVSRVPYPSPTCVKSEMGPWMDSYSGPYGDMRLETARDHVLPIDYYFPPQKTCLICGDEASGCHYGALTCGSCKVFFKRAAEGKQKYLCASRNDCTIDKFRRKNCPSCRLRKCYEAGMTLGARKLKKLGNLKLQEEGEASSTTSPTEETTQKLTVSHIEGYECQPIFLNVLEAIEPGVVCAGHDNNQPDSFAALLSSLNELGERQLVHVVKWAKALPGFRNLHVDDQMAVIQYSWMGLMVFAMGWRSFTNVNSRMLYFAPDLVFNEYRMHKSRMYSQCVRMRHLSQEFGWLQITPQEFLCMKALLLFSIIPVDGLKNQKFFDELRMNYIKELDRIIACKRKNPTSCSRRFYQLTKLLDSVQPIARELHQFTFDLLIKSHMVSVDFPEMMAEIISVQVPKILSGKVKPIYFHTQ
Kind of data set: Binding affinity to androgen receptor LBD (unknown origin) at 10 uM incubated for 4 hrs under dark by fluorescence polarization based binding assay relative to R1881. (In fluorescence polarisation assays a small probe gives low polarisation when free and higher when bound to something large.)

The test system of another data set is PC-3. Kind of data set: Antiproliferative activity against androgen-negative human PC-3 cells assessed as cell growth inhibition measured after 72 hrs by SRB assay. Type of data set: functional, cell-based. As to conditions: PC-3, 72 h.
Data set [2] can be described thus: Cytotoxicity against androgen-negative human WPMY-1 cells assessed as cell growth inhibition measured after 72 hrs by SRB assay. Type of data set: cell-based. As to conditions: WPMY-1, 72 h. For orientation: In SRB staining, fixed cells bind dye roughly in proportion to their protein.
A further data set has as its system GES1. As to the kind of experiment: Cytotoxicity against androgen-negative human GES1 cells assessed as cell growth inhibition measured after 72 hrs by SRB assay. Type of data set: cell-based. The note with it: GES1, 72 h.
In data set [3] the test system is LNCaP. As to the kind of experiment: Induction of cell cycle arrest in human LNCaP cells assessed as accumulation at G1 phase at 10 micromol/L after 24 hrs by RNase A/PI-staining based flow cytometric analysis (reference value: 47.99%). It counts as functional. The note with it: dose 10 µmol/L, at 10 µM.
Data set [4] relates to LNCaP. As to the kind of experiment: Induction of cell cycle arrest in human LNCaP cells assessed as accumulation at S phase at 10 micromol/L after 24 hrs by RNase A/PI-staining based flow cytometric analysis (reference value: 20.69%). Type of data set: functional. The note with it: dose 10 µmol/L, at 10 µM.
Data set [5] deals with LNCaP. As to the kind of experiment: Induction of cell cycle arrest in human LNCaP cells assessed as accumulation at G2 phase at 10 micromol/L after 24 hrs by RNase A/PI-staining based flow cytometric analysis (reference value: 20.87%). Type of data set: functional. The note with it: dose 10 µmol/L, at 10 µM. (In general: A flow cytometer gives signals particle by particle.)

For data set [6], the system named is LNCaP. Kind of data set: Induction of apoptosis in human LNCaP cells assessed as early apoptotic cells level at 1 micromol/L incubated for 24 hrs by Annexin V/PI staining staining based flow cytometry (reference value: 2.09%). As to conditions: dose 1 µmol/L, at 1 µM. Type of data set: functional.
The subject of data set [7] is LNCaP. As to the kind of experiment: Induction of apoptosis in human LNCaP cells assessed as early apoptotic cells level at 2 micromol/L incubated for 24 hrs by Annexin V/PI staining staining based flow cytometry (reference value: 2.09%). It counts as functional. The note with it: dose 2 µmol/L, at 2 µM.
Data set [8] concerns LNCaP. As to the kind of experiment: Induction of apoptosis in human LNCaP cells assessed as necrotic cells level at 10 micromol/L incubated for 24 hrs by Annexin V/PI staining staining based flow cytometry (reference value: 0.694%). It counts as functional. The note with it: dose 10 µmol/L, at 10 µM.
Data set [9] relates to LNCaP. Kind of data set: Induction of apoptosis in human LNCaP cells assessed as late apoptotic cells level at 10 micromol/L incubated for 24 hrs by Annexin V/PI staining staining based flow cytometry (reference value: 0.940%). It counts as functional. The note with it: dose 10 µmol/L, at 10 µM.
Data set [10] relates to LNCaP. As to the kind of experiment: Induction of apoptosis in human LNCaP cells assessed as viable cells level at 10 micromol/L incubated for 24 hrs by Annexin V/PI staining staining based flow cytometry (reference value: 96.3%). It counts as functional. The note with it: dose 10 µmol/L, at 10 µM.
In data set [11] the target is T1, Androgen receptor (Homo sapiens). Kind of data set: Selective androgen receptor degradation activity at androgen receptor in human LNCaP cells assessed as down regulation of protein level at 10 uM after 24 hrs by Western blot analysis. It counts as cell-based.
The target of a further data set is T2, Progesterone receptor (Homo sapiens, UniProt P06401).
T2 sequence (P06401 whole entry): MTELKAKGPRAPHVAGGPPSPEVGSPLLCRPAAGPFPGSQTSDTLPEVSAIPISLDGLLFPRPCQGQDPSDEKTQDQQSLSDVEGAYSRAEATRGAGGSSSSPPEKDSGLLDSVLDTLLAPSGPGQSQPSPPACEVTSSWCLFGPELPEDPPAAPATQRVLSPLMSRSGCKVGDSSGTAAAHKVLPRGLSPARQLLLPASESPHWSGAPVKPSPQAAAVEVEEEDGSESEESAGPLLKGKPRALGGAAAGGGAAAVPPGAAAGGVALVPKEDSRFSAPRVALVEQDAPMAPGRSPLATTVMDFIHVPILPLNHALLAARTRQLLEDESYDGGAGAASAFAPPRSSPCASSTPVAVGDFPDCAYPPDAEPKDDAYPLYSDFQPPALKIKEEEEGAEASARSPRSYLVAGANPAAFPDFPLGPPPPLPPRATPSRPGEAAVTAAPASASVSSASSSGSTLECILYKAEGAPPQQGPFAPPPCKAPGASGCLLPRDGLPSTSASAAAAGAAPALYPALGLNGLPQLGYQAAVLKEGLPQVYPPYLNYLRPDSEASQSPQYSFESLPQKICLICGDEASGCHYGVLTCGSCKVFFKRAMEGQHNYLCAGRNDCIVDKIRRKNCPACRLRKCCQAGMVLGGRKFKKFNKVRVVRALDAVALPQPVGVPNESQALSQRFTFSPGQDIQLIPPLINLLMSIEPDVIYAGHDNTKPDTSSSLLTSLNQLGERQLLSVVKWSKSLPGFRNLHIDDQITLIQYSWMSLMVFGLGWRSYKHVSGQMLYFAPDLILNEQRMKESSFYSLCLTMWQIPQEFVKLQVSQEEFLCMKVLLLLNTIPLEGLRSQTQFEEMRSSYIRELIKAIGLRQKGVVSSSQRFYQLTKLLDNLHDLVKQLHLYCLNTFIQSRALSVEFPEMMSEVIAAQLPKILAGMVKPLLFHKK
Kind of data set: Induction of downregulation of progesterone receptor in human T47D cells at 10 uM measured after 24 hrs by Western blot analysis. It counts as cell-based.

The test system of data set [12] is LNCaP. Kind of data set: Induction of apoptosis in human LNCaP cells assessed as total apoptotic cells at 10 uM incubated for 24 hrs by Annexin V/PI staining staining based flow cytometry (reference value: 2.76%). Type of data set: functional.

By IC50 is commonly meant the concentration at which inhibition is half-maximal.

As for `CC1(C)C(=O)N(c2ccc(C#N)c(C(F)(F)F)c2)C(=S)N1CCCCCn1cc(COCCOCCOC(=O)CC23CC4CC(CC(C4)C2)C3)nn1`, the Activity was 85.3% in data set [1]; 74.56% with LNCaP [3]; 16.11% in the data set on LNCaP [4]; 6.4% in the data set with LNCaP [5]; 1.56% in the data set with LNCaP [6]; 1.56% in the data set with LNCaP [7]. The Activity with LNCaP [8] was 0.024%; in the data set on LNCaP [9] it was 6.6%; with LNCaP [10], 79%; at Progesterone receptor, “Active”; in the data set with LNCaP [12] it was 19.22%. Besides, the IC50 (in the data set with PC-3; in data set [2]; with GES1) was over 80 µM throughout. The result in data set [11] was Active.
